Measured values from patent US10391115B2, “Anticancer adjuvant composition containing RIP3 expression promoter as active ingredient, method for screening for anticancer adjuvant enhancing sensitivity of anticancer drug by promoting RIP3 expression, and method for monitoring sensitivity of anticancer drug” (AJOU UNIVERSITY INDUSTRY-ACADEMIC COOPERATION FOUNDATION, priority 2014, dated 2019).

Legend:
[1] = system: RIP3 expression in cancer cell lines (HeLa, MDA-MB231, BT549); assay: RIP3 expression by demethylating agent 5-AD, Western blotting; type: cell-based; conditions: MDA-MB231, BT549 that express no RIP3, 5-AD 2 uM, treated two times for 4 days
Experimental: (§1) Cells were lysed in M2 buffer. Equal amounts of cell extracts were analyzed by SDS-PAGE and immunoblotting, and blots were visualized by enhanced chemiluminescence (ECL, Amersham).

HeLa cell lines = assay: Sensitization of cancer cell death by combined treatment with demethylating agent and anticancer drug; conditions: pretreated two times for 4 days to induce RIP3 expression, then anticancer drug
[2] = system: HeLa cell line (non-target / shRIP3); assay: Sensitization by 5-AD plus anticancer drug in non-target and shRIP3 HeLa cell lines (immunoblotting, MTT assay); type: cell-based, human
Experimental: A MISSION short-hairpin RNA (shRNA) plasmid that targets the coding region or 3′ UTR of hRIP3 mRNA (NM_006871) or a non-target control sequence (NM-027088) were obtained from Sigma-Aldrich. A Lentivirus plasmid was transfected into 293T cells (System Biosciences, LV900A-1) using Lipofectamine 2000 (Invitrogen, 11668019). Pseudoviral particles were collected at 2 days after transfection of the Lentivirus plasmid and infected into various cancer cells in the presence of polybrene (10 μg/mL). At 2 days after infection, infected cells were selected with puromycin, and RIP3 knockdown was confirmed by immunoblotting. Cells without endogenous RIP3 were afterwards treated with 5-AD for 4 days and analyzed by immunoblotting.
Unlike a non-target cell line, in the case of a shRIP3 cell line, RIP3 expression in the cell line was inhibited by shRNA, even though the cell line was treated with 5-AD. Thus, the effect of RIP3 on sensitization of the cell line by a combined treatment with the anticancer drug and the demethylating agent could be confirmed. […] In addition, after the same number of cells seeded, the sensitization effect by the combined treatment with the anticancer drug was analyzed using a cell viability assay (MTT assay) (FIG. 6).
Because the demethylating agent (5-AD or 5-AZA) is not a specific drug for a certain protein, it may cause expression of various proteins in addition to RIP3.

[3] = system: RIP3 expression in DLD-1 colorectal cancer cell line; assay: RIP3 expression by demethylating agent 5-AZA, Western blotting; type: cell-based; conditions: DLD-1 not expressing RIP3; various concentrations of 5-AZA, treated two times for 4 days
Experimental: as §1

T47D breast cancer cells = assay: Viability assay (MTT) of RIP3-silenced T47D cells with anticancer drugs; type: cell-based, human; conditions: 48 hours; for anticancer drug resistance (MTT assay): RIP3-knocked down T47D test group vs control group; for cell killing (MTT assay): control group T47D
Experimental: In order to examine whether RIP3 also has an effect on breast cancer cells, RIP3-expressing T47D cells were used. First, the cells were infected with RIP3 in the same manner as described in Example 6.
In order to examine whether RIP3 increases anticancer drug sensitivity in T47D breast cancer cells, an MTT assay was performed. A control group and a RIP3-knocked down test group were incubated with doxorubicin, etoposide and taxol at the concentrations shown in FIG. 11 (right) for 48 hours.

HT-29 cells = assay: Viability assay (MTT) of RIP3-silenced HT-29 cells with anticancer drugs; type: cell-based, human; conditions: doxorubicin 2.5 and 5 uM, etoposide 50 and 100 uM, 48 hours
Experimental: HT-29 cells (American Tissue Culture Collection) were cultured in a 37° C. incubator using DMEM medium supplemented with penicillin-streptomycin (10 IU/ml) and 10% FBS. The shRNAi double strand used in the present invention was commercially synthesized by Sigma-Aldrich. The shRNA used in the present invention was designed so as to target the coding region of a human RIPK3 mRNA sequence (NCBI Reference sequence NM_006871).
First, cultured HT-29 cells were dispensed in a 35-mm dish at a density of 2×10^5 cells. On the next day, the cells were infected with shRNA particles together with polybrene (10 ug/ml) according to the protocol's instruction.
In the present invention, in order to examine whether the RIP3 gene is associated with anticancer drug sensitivity, HT-29 cells infected with RIP3 shRNA were treated with varying concentrations of doxorubicin and etoposide, and then the cell viability of the cancer cells was measured. Particularly, HT-29 cells infected with RIP3 shRNA were treated with 2.5 uM and 5 uM of doxorubicin and 50 uM and 100 uM of etoposide, and then incubated for 48 hours. After the medium was replaced with a fresh medium containing 0.1 mg of MTT (3-([4,5-dimethylthiazol-2-yl]-2,5-diphenyltetrazolium bromide), the cells were further incubated for 2 hours. Colorimetric analysis was performed on a precipitate obtained by reducing a tetrazolium salt, in which viable cells is dissolved, into purple formazan crystal. Next, the medium was removed, and the produced formazan crystal was dissolved in 500 ul of DMSO, and the absorbance was measured using an ELISA reader at 570 nm. Cell viability was expressed as a percentage relative to the control taken as 100% viability.

[4] = RIP3 knocked down with shRNA HT-29
[5] = control group (non-target shRNA) HT-29

SMILES	sensitization to cell death by anticancer drug after demethylating agent pretreatment (HeLa cell lines)	anticancer drug resistance (MTT assay) (T47D breast cancer cells)	cell killing (MTT assay) (T47D breast cancer cells)	cell viability (MTT) (HT-29 cells; [4])	cell viability (MTT) (HT-29 cells; [5])	also measured
Nc1ncn([C@H]2C[C@H](O)[C@@H](CO)O2)c(=O)n1 [5-AD, 5-aza-2′-deoxycytidine]	sensitized to anticancer drug					RIP3 expression (Western blotting) [1]: RIP3 expression was induced; sensitization of cancer cell death by combined treatment with anticancer drug ([2]; non-target HeLa cell line, 5-AD treated two times for 4 days): showed the effect of sensitizing the cancer cell death by RIP3 expression; sensitization of cancer cell death by combined treatment with anticancer drug (cell viability assay) ([2]; shRIP3 HeLa cell line that expresses no RIP3): the sensitization effect was inhibited; RIP3 expression after 5-AD treatment ([2]; shRIP3 HeLa cell line, 5-AD treated two times for 4 days): RIP3 was not expressed
Nc1ncn([C@@H]2O[C@H](CO)[C@@H](O)[C@H]2O)c(=O)n1 [5-AZA, 5-azacytidine]	the effect of sensitizing the cancer cell line to cell death was obtained					RIP3 expression (Western blotting) [3]: RIP3 expression was induced
COc1cccc2c1C(=O)c1c(O)c3c(c(O)c1C2=O)C[C@@](O)(C(=O)CO)C[C@@H]3O[C@H]1C[C@H](N)[C@H](O)[C@H](C)O1 [doxorubicin]		significantly increased compared to that of the control group	killed dependently on the concentration	the cell viability increased compared to that of the control group	the cell viability decreased dependently on the concentration	
COc1cc([C@@H]2c3cc4c(cc3[C@@H](O[C@@H]3O[C@@H]5CO[C@@H](C)O[C@H]5[C@H](O)[C@H]3O)[C@H]3COC(=O)[C@H]23)OCO4)cc(OC)c1O [etoposide]		significantly increased compared to that of the control group	killed dependently on the concentration	the cell viability increased compared to that of the control group	the cell viability decreased dependently on the concentration	
CC(=O)O[C@H]1C(=O)[C@@]2(C)[C@H]([C@H](OC(=O)c3ccccc3)[C@]3(O)C[C@H](OC(=O)[C@H](O)[C@@H](NC(=O)c4ccccc4)c4ccccc4)C(C)=C1C3(C)C)[C@]1(OC(C)=O)CO[C@@H]1C[C@@H]2O [taxol]		significantly increased compared to that of the control group	killed dependently on the concentration			
